Results: patent US20200017495A1, “NOVEL HETEROCYCLIC COMPOUNDS AND THEIR USE IN PREVENTING OR TREATING BACTERIAL INFECTIONS” (priority 2017, published 2020)
Where two headings read alike, the source gives them in different places.

What was measured:
Assay in all cases: MIC of compounds alone and combined with antibacterials, broth microdilution (CLSI)
Type in all cases: cell-based
[1] = tested on: Citrobacter koseri (CKR) isolates; conditions: Citrobacter koseri, alone, read-out: MIC
Method: (§1) Method 2: MIC of Compounds Alone and Combined with Antibacterials Against Bacterial Isolates
(§2) Compounds of the present invention were assessed against genotyped bacterial strains (Table 3, 4) alone or in combination with an antibacterial (Table 2). […] Log phase bacterial suspensions were adjusted to a final density of 5.10^5 CFU/mL in cation-adjusted Mueller-Hinton broth (ca-MHB; Becton-Dickinson and Company) and added to each well (98 μL). Microplates were incubated for 16-20 h at 35° C. in ambient air. The MIC of the compounds was defined as the lowest concentration of said compounds that prevented bacterial growth as read by visual inspection. The MIC of ATB at each compound concentration was defined as the lowest concentration of ATB that prevented bacterial growth as read by visual inspection.

[2] = tested on: Morganella morganii (MMO) isolates; conditions: Morganella morganii, read-out: MIC
Method: as §1, §2

[3] = tested on: Escherichia coli (ECO) isolates; conditions: Escherichia coli, read-out: MIC
Method: as §1, §2

[4] = tested on: Enterobacter aerogenes (EAE) isolates; conditions: Klebsiella aerogenes, alone, read-out: MIC
Method: as §1, §2

[5] = tested on: Enterobacter cloacae (ECL) isolates; conditions: Enterobacter cloacae, read-out: MIC
Method: as §1, §2

For `O=C1N2CC(c3ncco3)=CC(C2)N1OC(F)(F)C(=O)[O-].[Li+]` (centres unmarked) [AF2], the MIC ([1]; CKO ROU) was 16 µg/mL, the MIC ([1]; CKO UFR149) was 16 µg/mL and the MIC ([1]; CKO UFR150) was greater than 32 µg/mL. For the same compound, the MIC ([2]; MMO 200321, alone) was 32 µg/mL, the MIC ([2]; MMO UFR144, alone) was greater than 32 µg/mL and the MIC ([2]; MMO UFR240, alone) was greater than 32 µg/mL. It also gave an MIC ([2]; MMO UFR241, alone) greater than 32 µg/mL, an MIC ([2]; MMO UFR242, alone) greater than 32 µg/mL and an MIC ([2]; MMO UFR243, alone) greater than 32 µg/mL. It also gave an MIC ([2]; MMO UFR244, alone) greater than 32 µg/mL, an MIC ([2]; MMO UFR245, alone) greater than 32 µg/mL and an MIC ([2]; MMO UFR246, alone) greater than 32 µg/mL. It also gave an MIC ([2]; MMO UFR247, alone) of 32 µg/mL, an MIC ([2]; strain MMO UFR145, compound alone) greater than 32 µg/mL and an MIC ([3]; ECO 4133, alone) of 8 µg/mL. The MIC ([3]; ECO 5302, alone) was 4 µg/mL, the MIC ([3]; ECO 131119, alone) was 4 µg/mL and the MIC ([3]; ECO 180070, alone) was 8 µg/mL. The MIC ([3]; ECO 190314, alone) was 8 µg/mL, the MIC ([3]; ECO 190317, alone) was 4 µg/mL and the MIC ([3]; ECO 190457, alone) was 4 µg/mL. The MIC ([3]; ECO 190549, alone) was 4 µg/mL, the MIC ([3]; ECO 200159, alone) was 4 µg/mL and the MIC ([3]; ECO 200259, alone) was 4 µg/mL. The MIC ([3]; ECO 200344, alone) was 8 µg/mL, the MIC ([3]; ECO 260096, alone) was 16 µg/mL and the MIC ([3]; ECO 260304, alone) was 4 µg/mL. It also gave an MIC ([3]; ECO 260508, alone) of 8 µg/mL, an MIC ([3]; ECO (strain number on grid row 356, not shown), alone) of 8 µg/mL and an MIC ([3]; ECO UFR17, alone) of 16 µg/mL. The MIC ([3]; ECO UFR18, alone) was 8 µg/mL, the MIC ([3]; ECO UFR19, alone) was 8 µg/mL and the MIC ([3]; ECO UFR32, alone) was 8 µg/mL. For the same compound, the MIC ([3]; ECO UFR39, alone) was 8 µg/mL, the MIC ([3]; ECO UFR41, alone) was 8 µg/mL and the MIC ([3]; ECO UFR45, alone) was 4 µg/mL. For the same compound, the MIC ([3]; ECO UFR52, alone) was 32 µg/mL, the MIC ([3]; ECO UFR61O, alone) was 8 µg/mL and the MIC ([3]; ECO UFR62, alone) was 8 µg/mL. For the same compound, the MIC ([3]; ECO UFR74, alone) was 8 µg/mL, the MIC ([3]; ECO UFR86, alone) was 16 µg/mL and the MIC ([3]; ECO UFR174, alone) was 2 µg/mL. The MIC ([3]; ECO UFR176, alone) was 8 µg/mL, the MIC ([3]; ECO UFR184, alone) was 4 µg/mL and the MIC ([3]; ECO UFR208, alone) was 16 µg/mL. The MIC ([3]; ECO UFR209, alone) was 8 µg/mL, the MIC ([3]; ECO UFR210, alone) was 4 µg/mL and the MIC ([3]; ECO UFR211, alone) was 4 µg/mL. It also gave an MIC ([3]; ECO UFR212, alone) of 4 µg/mL, an MIC ([3]; ECO URF20, alone) of 4 µg/mL and an MIC ([3]; strain ECO UFR177, compound alone) of 4 µg/mL. For the same compound, the MIC ([3]; strain ECO UFR178, compound alone) was 8 µg/mL, the MIC ([3]; strain ECO UFR179, compound alone) was 4 µg/mL and the MIC ([3]; strain ECO UFR180, compound alone) was 4 µg/mL. The MIC ([3]; strain ECO UFR181, compound alone) was 16 µg/mL, the MIC ([3]; strain ECO UFR182, compound alone) was 8 µg/mL and the MIC ([3]; strain ECO UFR183, compound alone) was 32 µg/mL. The MIC ([3]; strain ECO UFR186, compound alone) was 8 µg/mL, the MIC ([3]; strain ECO UFR187, compound alone) was 16 µg/mL and the MIC ([3]; strain ECO UFR189, compound alone) was 4 µg/mL. For the same compound, the MIC ([3]; strain ECO UFR190, compound alone) was 8 µg/mL, the MIC ([3]; strain ECO UFR191, compound alone) was 8 µg/mL and the MIC ([3]; strain ECO UFR204, compound alone) was 8 µg/mL. It also gave an MIC ([3]; strain ECO UFR205, compound alone) of 8 µg/mL, an MIC ([3]; strain ECO UFR206, compound alone) of 16 µg/mL and an MIC ([3]; strain ECO UFR252GO, compound alone) of 8 µg/mL. It also gave an MIC ([3]; strain ECO UFR255, compound alone) of 4 µg/mL, an MIC ([4]; EAE 49469) of 8 µg/mL and an MIC ([4]; EAE 200261) of 16 µg/mL. It also gave an MIC ([4]; EAE UFR199) of 16 µg/mL, an MIC ([4]; EAE UFR201) of 4 µg/mL and an MIC ([4]; EAE UFR202) of 32 µg/mL. It also gave an MIC ([4]; EAE UFR207) of 4 µg/mL, an MIC ([4]; EAE UFR213) of 16 µg/mL and an MIC ([5]; ECL 190408, alone) of 4 µg/mL. The MIC ([5]; ECL HAN, alone) was 32 µg/mL, the MIC ([5]; ECL NEM146383, alone) was 32 µg/mL and the MIC ([5]; ECL P99, alone) was 8 µg/mL. The MIC ([5]; ECL UFR12, alone) was 16 µg/mL, the MIC ([5]; ECL UFR13, alone) was 16 µg/mL and the MIC ([5]; ECL UFR14, alone) was 16 µg/mL. For the same compound, the MIC ([5]; ECL UFR38, alone) was 8 µg/mL, the MIC ([5]; ECL UFR51, alone) was 8 µg/mL and the MIC ([5]; ECL UFR60, alone) was 16 µg/mL. For the same compound, the MIC ([5]; ECL UFR70, alone) was 8 µg/mL, the MIC ([5]; ECL UFR84, alone) was 32 µg/mL and the MIC ([5]; ECL UFR85, alone) was 8 µg/mL. For the same compound, the MIC ([5]; ECL UFR200, alone) was 32 µg/mL, the MIC ([5]; strain ECL UFR192, compound alone) was 16 µg/mL and the MIC ([5]; strain ECL UFR193, compound alone) was 16 µg/mL. For the same compound, the MIC ([5]; strain ECL UFR194, compound alone) was 8 µg/mL, the MIC ([5]; strain ECL UFR195, compound alone) was 16 µg/mL and the MIC ([5]; strain ECL UFR196, compound alone) was 16 µg/mL. For the same compound, the MIC ([5]; strain ECL UFR197, compound alone) was 8 µg/mL, the MIC ([5]; strain ECL UFR198, compound alone) was 32 µg/mL and the MIC ([5]; strain ECL UFR203, compound alone) was 32 µg/mL. It also gave an MIC ([5]; strain ECL UFR214, compound alone) of 32 µg/mL and an MIC ([5]; strain ECL UFR252PT, compound alone) greater than 32 µg/mL.
